Assay results: the supplement of paper PMC10307832

Key:
Experiment in all cases: relative viability (nuclei count vs DMSO), 5 days (fraction); higher = more cells survive
[1] = compound: O=C(C[C@H]1NCCC[C@@H]1O)Cn1cnc2cc(Br)c(Cl)cc2c1=O (racemic) [Halofuginone] + CS(=O)(=O)CCNCc1ccc(-c2ccc3ncnc(Nc4ccc(OCc5cccc(F)c5)c(Cl)c4)c3c2)o1 [Lapatinib] (partner 2 µM)
How it was run: (§1)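 One day after seeding in 1536-well plates, lung cancer cell lines were dosed by pin tool. Dosing was either single-drug or a fixed anchor-drug dose plus five library-drug doses (not always all listed) in √10 steps. After 5 days, nuclei were stained in one fix-and-stain step and counted on 4× images, and relative viability is the nuclei count of treated wells over that of vehicle wells, given as the median of duplicate plates.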

[2] = compound: Nc1ncn([C@H]2C[C@H](O)[C@@H](CO)O2)c(=O)n1 [Decitabine] + Nc1nc2[nH]cc(CCc3ccc(C(=O)N[C@@H](CCC(=O)O)C(=O)O)cc3)c2c(=O)[nH]1 [Pemetrexed] (partner 0.2 µM)
How it was run: as §1

[3] = compound: COc1cc2c(Oc3ccc4[nH]c(C)cc4c3F)ncnc2cc1OCCCN1CCCC1 [Cediranib] + COc1cc2c(Oc3ccc(NC(=O)C4(C(=O)Nc5ccc(F)cc5)CC4)cc3F)ccnc2cc1OCCCN1CCOCC1 [Foretinib] (partner 0.25 µM)
How it was run: as §1

[4] = compound: Nc1ncn([C@H]2C[C@H](O)[C@@H](CO)O2)c(=O)n1 [Decitabine] + Cc1nc(NC(=O)N2CCC[C@H]2C(N)=O)sc1-c1ccnc(C(C)(C)C(F)(F)F)c1 [Alpelisib] (partner 2 µM)
How it was run: as §1

Row | Cell Line | relative viability ([1]; first compound 0.001 µM) | relative viability ([1]; first compound 0.003162 µM) | relative viability ([1]; first compound 0.01 µM) | relative viability ([1]; first compound 0.03162 µM) | relative viability ([1]; first compound 0.1 µM) | relative viability ([2]; first compound 0.04 µM) | relative viability ([2]; first compound 0.1265 µM) | relative viability ([2]; first compound 0.4 µM) | relative viability ([2]; first compound 1.265 µM) | relative viability ([2]; first compound 4 µM) | relative viability ([3]; first compound 0.04 µM) | relative viability ([3]; first compound 0.1265 µM) | relative viability ([3]; first compound 0.4 µM) | relative viability ([3]; first compound 1.265 µM) | relative viability ([3]; first compound 4 µM) | relative viability ([4]; first compound 0.04 µM) | relative viability ([4]; first compound 0.1265 µM) | relative viability ([4]; first compound 0.4 µM) | relative viability ([4]; first compound 1.265 µM) | relative viability ([4]; first compound 4 µM)
1 | LOU-NH91 | 0.77 | 0.746 | 0.747 | 0.738 | 0.676 | 0.378 | 0.358 | 0.422 | 0.336 | 0.397 | 0.903 | 1.12 | 0.859 | 0.961 | 0.829 | 0.484 | 0.673 | 0.688 | 0.592 | 0.61
2 | SW 900 | – | – | – | – | – | 0.415 | 0.411 | 0.345 | 0.277 | 0.303 | 0.535 | 0.877 | 0.878 | 0.98 | 1.18 | – | – | – | – | –
3 | LCLC-103H | – | – | – | – | – | 0.426 | 0.362 | 0.284 | 0.379 | 0.333 | 0.819 | 0.964 | 0.686 | 0.823 | 0.832 | 0.888 | 0.958 | 0.487 | 0.858 | 0.64
4 | NCI-H1915 | 0.977 | 0.983 | 0.942 | 0.96 | 0.984 | 0.274 | 0.225 | 0.222 | 0.191 | 0.176 | 1.14 | 1.01 | 1.08 | 1.11 | 1.13 | 0.475 | 0.301 | 0.272 | 0.227 | 0.247
5 | IA-LM | 0.85 | 0.781 | 0.579 | 0.518 | 0.0907 | – | – | – | – | – | 1.16 | 1.32 | 1.07 | 1.26 | 1.33 | 0.464 | 0.406 | 0.297 | 0.207 | 0.152
6 | NCI-H1734 | 1.12 | 1.02 | 1.05 | 0.986 | 0.812 | 0.345 | 0.323 | 0.293 | 0.262 | 0.284 | 0.813 | 0.911 | 0.822 | 0.853 | 0.979 | 0.5 | 0.615 | 0.535 | 0.399 | 0.324
7 | SK-MES-1 | 0.486 | 0.454 | 0.474 | 0.409 | 0.342 | 0.828 | 0.682 | 0.458 | 0.343 | 0.338 | 0.834 | 1.02 | 0.927 | 0.901 | 0.976 | 0.733 | 0.738 | 0.482 | 0.32 | 0.261
8 | Calu-6 | 1.18 | 1 | 1.05 | 0.689 | 0.176 | – | – | – | – | – | 0.921 | 0.944 | 0.857 | 0.863 | 0.911 | 0.736 | 0.681 | 0.547 | 0.322 | 0.279
9 | HCC-15 | 0.88 | 0.887 | 0.829 | 0.863 | 0.785 | 0.2 | 0.207 | 0.179 | 0.19 | 0.191 | 1.01 | – | 0.946 | 1.07 | 1.09 | 0.799 | 0.773 | 0.441 | 0.438 | 0.302
